These results are taken from patent publication US20040039019A1, “Selected anthranilaminde pyridinamides and their use as pharmaceutical agents” (Schering AG, priority 2002, published 2004).

The structures appear in SMILES notation.

The target in test [1] is T1, human Cytochrome P 450 2C9 (Homo sapiens, UniProt P11712).
T1 construct: host or cells: baculovirus/insect cells
The experiment in a line: Cytochrome P450 inhibition, isoenzyme 2C9. The class given is in vitro ADME. Conditions: baculovirus/insect cell-expressed human isoenzyme 2C9; read-out: Inhibition of the Cytochrome P450 Isoenzymes (IC50) 2C9. The method, then: (§1) Cytochrome P450 Inhibition
(§2) The Cytochrome P450 inhibition was performed according to the publication of Crespi et al. (Anal. Biochem., 248, 188-190 (1997)) with use of baculovirus/insect cell-expressed, human Cytochrome P 450 isoenzymes (1A2, 2C9, 2C19, 2D6, 3A4).

The target of test [2] is T2, human Cytochrome P 450 1A2 (Homo sapiens, UniProt P05177).
T2 construct: host or cells: baculovirus/insect cells
T2 sequence (P05177 1-516): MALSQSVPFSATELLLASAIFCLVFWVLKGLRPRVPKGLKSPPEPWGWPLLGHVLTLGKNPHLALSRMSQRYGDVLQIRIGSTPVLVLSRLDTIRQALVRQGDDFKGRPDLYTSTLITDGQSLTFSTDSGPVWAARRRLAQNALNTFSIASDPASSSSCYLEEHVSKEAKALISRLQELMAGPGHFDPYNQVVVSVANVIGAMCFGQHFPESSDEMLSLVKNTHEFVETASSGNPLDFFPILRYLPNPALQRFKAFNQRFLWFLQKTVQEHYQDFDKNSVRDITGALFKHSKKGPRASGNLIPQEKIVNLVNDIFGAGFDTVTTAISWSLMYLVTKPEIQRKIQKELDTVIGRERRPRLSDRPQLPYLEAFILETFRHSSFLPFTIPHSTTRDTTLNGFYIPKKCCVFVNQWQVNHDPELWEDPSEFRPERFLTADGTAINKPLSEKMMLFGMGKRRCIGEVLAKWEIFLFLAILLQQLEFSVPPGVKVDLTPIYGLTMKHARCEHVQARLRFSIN
The experiment in a line: Cytochrome P450 inhibition, isoenzyme 1A2. The class given is in vitro ADME. Conditions: baculovirus/insect cell-expressed human isoenzyme 1A2; read-out: Inhibition of the Cytochrome P450 Isoenzymes (IC50) 1A2. As for the experimental part:
as §1, §2

Test [3] has as its target T3, human Cytochrome P 450 2C19 (Homo sapiens, UniProt P33261).
T3 construct: host or cells: baculovirus/insect cells
The experiment in a line: Cytochrome P450 inhibition, isoenzyme 2C19. It is filed as in vitro ADME. Conditions: baculovirus/insect cell-expressed human isoenzyme 2C19; read-out: Inhibition of the Cytochrome P450 Isoenzymes (IC50) 2C19. The method, then: as §1, §2

Test [4] has as its target T4, human Cytochrome P 450 3A4 (Homo sapiens, UniProt P08684).
T4 construct: host or cells: baculovirus/insect cells
The experiment in a line: Cytochrome P450 inhibition, isoenzyme 3A4. It is filed as in vitro ADME. Conditions: baculovirus/insect cell-expressed human isoenzyme 3A4; read-out: Inhibition of the Cytochrome P450 Isoenzymes (IC50) 3A4. As for the experimental part: as §1, §2

Test [5] deals with T5, human Cytochrome P 450 2D6 (Homo sapiens, UniProt P10635).
T5 construct: host or cells: baculovirus/insect cells
Put plainly: Cytochrome P450 inhibition, isoenzyme 2D6. Conditions: baculovirus/insect cell-expressed human isoenzyme 2D6; read-out: Inhibition of the Cytochrome P450 Isoenzymes (IC50) 2D6. The class given is in vitro ADME. The method, then:
as §1, §2

Another test deals with VEGFR II (KDR) (Homo sapiens, UniProt P35968). The experiment in a line: Inhibition of the KDR kinase activity. It is filed as biochemical. Conditions: poly-(Glu4Tyr) substrate, 33P-ATP, 10 minutes at room temperature. As for the experimental part:
Solutions Required for the Tests
Stock solution A: 3 mmol of ATP in water, pH 7.0 (−70° C.)
Stock solution B: g-33P-ATP 1 mCi/100 μl
Stock solution C: poly-(Glu4Tyr) 10 mg/ml in water
Substrate solvent: 10 mmol of DTT, 10 mmol of manganese chloride, 100 mmol of magnesium chloride
Enzyme solution: 120 mmol of tris/HCl, pH 7.5, 10 μM of sodium vanadium oxide
Inhibition of the KDR- and FLT-1 Kinase Activity in the Presence of the Compounds According to the Invention
In a microtiter plate (without protein binding) that tapers to a point, 10 μl of substrate mix (10 μl of volume of ATP stock solution A +25 μCi of g-33P-ATP (about 2.5 μl of stock solution B)+30 μl of poly-(Glu4Tyr) stock solution C+1.21 ml of substrate solvent), 10 μl of inhibitor solution (substances corresponding to the dilutions, 3% DMSO in substrate solvent as a control) and 10 μl of enzyme solution (11.25 μg of enzyme stock solution (KDR or FLT-1 kinase) are added at 4° C. in 1.25 ml of enzyme solution (dilute). It is thoroughly mixed and incubated for 10 minutes at room temperature. Then, 10 μl of stop solution (250 mmol of EDTA, pH 7.0) is added, mixed, and 10 μl of the solution is transferred to a P 81 phosphocellulose filter. Then, it is washed several times in 0.1 M phosphoric acid. The filter paper is dried, coated with Meltilex and measured in a microbeta counter. […]

T3 sequence (P33261 whole entry): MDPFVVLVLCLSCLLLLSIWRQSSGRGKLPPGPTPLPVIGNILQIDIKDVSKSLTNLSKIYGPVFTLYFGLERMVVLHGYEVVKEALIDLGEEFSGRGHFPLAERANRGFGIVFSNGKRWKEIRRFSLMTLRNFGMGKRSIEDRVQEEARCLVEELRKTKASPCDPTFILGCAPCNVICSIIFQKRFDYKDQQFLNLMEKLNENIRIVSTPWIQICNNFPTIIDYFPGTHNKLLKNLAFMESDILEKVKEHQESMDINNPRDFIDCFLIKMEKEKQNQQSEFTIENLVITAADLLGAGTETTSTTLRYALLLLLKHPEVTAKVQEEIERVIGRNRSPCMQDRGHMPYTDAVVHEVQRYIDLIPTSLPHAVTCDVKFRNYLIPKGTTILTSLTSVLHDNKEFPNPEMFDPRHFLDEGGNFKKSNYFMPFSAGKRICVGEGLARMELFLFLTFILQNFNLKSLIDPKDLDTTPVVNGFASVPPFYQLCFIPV
T1 sequence (P11712 whole entry): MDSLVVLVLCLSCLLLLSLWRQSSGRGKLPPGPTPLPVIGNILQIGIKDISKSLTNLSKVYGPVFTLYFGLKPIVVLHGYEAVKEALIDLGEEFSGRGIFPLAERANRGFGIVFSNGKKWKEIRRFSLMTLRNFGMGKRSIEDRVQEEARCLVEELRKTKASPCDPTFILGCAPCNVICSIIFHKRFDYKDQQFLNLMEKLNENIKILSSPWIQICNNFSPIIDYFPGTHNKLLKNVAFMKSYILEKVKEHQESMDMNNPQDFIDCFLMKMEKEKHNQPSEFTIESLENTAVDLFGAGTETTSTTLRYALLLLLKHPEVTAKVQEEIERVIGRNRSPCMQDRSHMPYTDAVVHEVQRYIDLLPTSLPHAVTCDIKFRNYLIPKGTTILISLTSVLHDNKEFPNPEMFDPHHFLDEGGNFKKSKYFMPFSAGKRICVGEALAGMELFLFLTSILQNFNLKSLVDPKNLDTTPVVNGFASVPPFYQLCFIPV
VEGFR II (KDR), sequence (P35968 20-1356, species assumed): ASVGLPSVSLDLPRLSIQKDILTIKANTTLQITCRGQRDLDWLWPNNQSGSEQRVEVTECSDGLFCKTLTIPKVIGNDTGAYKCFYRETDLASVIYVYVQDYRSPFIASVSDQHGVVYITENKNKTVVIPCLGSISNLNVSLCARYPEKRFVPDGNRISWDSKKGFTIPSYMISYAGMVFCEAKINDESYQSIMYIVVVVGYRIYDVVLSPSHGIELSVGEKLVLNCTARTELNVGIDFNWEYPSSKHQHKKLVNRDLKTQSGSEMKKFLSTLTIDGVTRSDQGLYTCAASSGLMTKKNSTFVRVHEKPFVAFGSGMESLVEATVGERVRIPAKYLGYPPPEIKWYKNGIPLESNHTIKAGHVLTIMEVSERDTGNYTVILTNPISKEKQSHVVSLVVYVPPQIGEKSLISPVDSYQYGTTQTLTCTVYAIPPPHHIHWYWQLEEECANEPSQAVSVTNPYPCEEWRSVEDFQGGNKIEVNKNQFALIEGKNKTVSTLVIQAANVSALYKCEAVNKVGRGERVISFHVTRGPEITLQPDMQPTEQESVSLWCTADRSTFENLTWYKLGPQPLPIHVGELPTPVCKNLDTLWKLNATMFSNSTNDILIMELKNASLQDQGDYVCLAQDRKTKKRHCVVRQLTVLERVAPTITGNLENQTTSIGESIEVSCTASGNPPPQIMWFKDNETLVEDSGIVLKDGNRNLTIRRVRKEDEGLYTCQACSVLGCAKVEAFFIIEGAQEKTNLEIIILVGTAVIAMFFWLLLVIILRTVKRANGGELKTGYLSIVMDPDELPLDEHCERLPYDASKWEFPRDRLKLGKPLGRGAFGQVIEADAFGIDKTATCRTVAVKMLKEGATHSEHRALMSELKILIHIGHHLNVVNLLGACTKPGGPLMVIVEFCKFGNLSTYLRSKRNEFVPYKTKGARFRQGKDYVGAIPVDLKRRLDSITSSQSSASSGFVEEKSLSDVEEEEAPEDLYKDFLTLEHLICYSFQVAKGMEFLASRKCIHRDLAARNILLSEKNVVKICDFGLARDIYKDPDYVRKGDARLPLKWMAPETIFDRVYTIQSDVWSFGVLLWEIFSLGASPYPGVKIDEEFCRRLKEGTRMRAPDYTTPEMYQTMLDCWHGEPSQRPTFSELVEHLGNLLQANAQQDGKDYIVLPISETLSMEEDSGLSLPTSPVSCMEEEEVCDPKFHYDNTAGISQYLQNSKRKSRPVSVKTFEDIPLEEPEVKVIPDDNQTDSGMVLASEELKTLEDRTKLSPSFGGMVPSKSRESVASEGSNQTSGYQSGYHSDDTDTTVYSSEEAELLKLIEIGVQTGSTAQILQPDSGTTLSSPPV
T4 sequence (P08684 whole entry): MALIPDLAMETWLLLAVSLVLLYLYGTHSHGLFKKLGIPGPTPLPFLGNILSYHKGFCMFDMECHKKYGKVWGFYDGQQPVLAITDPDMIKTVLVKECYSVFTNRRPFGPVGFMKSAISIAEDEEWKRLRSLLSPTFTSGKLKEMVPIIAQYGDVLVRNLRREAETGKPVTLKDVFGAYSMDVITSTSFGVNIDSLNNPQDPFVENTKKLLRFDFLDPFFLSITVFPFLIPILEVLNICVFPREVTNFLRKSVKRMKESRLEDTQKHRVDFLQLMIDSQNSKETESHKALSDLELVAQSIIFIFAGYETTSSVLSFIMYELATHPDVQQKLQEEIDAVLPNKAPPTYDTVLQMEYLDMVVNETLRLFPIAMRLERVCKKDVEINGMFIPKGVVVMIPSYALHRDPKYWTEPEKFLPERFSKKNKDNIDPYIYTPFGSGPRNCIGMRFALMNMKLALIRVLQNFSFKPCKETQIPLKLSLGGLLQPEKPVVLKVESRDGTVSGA
T5 sequence (P10635 whole entry): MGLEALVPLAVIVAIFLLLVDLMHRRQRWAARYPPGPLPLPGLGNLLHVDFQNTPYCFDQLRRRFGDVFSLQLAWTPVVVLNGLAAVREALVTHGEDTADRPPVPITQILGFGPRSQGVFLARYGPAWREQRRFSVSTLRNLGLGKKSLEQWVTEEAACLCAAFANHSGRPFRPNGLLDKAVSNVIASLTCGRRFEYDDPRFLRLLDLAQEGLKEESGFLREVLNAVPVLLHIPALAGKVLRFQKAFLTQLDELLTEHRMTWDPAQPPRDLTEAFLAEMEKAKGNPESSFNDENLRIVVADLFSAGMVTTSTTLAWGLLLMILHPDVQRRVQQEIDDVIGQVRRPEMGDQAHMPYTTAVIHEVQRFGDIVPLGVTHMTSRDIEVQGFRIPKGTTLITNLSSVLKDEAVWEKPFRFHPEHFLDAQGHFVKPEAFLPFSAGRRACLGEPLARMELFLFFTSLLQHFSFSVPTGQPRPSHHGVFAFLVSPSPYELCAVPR

Consider `O=C1Cc2ccc(NC(=O)c3ccccc3NCc3ccc(=O)[nH]c3)cc2N1` [Example 1.0, N-(2-Oxo-2,3-dihydro-1H-indol-6-yl)-2-[(6-oxo-1,6-dihydro-pyridin-3-ylmethyl)-amino]-benzamide], for which the IC50 in test [1] was 23 µM; in test [2], greater than 30 µM; in test [3], greater than 30 µM; in test [4], greater than 30 µM; in test [5], greater than 30 µM; at VEGFR II (KDR), 50 nM.
